The test system of one series is HRV-1A. In words: Antirhinoviral H1-HeLa cell culture assay (XTT cell protection). The format is cell-based, human rhinovirus. Particulars: Rhinovirus A, HRV1A, H1-HeLa cells. The protocol:
(§1) In this cell protection assay, the ability of compounds to protect cells against HRV infection was measured by the XTT dye reduction method, which is described in Weislow et al., J. Natl. Cancer Inst. (1989), vol. 81, 577-586. H1-HeLa cells were infected with HRV-14 at a multiplicity of infection (m.o.i.) of 0.13 (virus particles/cell) or mock-infected with medium only. Infected or mock-infected cells were resuspended at 8×10^5 cells per ml, and incubated with appropriate concentrations of the compounds to be tested. Two days later, XTT/PMS was added to test plates and the amount of formazan produced was quantified spectrophotometrically at 450/650 nm. The EC50 value was calculated as the concentration of compound that increased the percentage of formazan production in compound-treated, virus-infected cells to 50% of that produced by compound-free, mock-infected cells. The 50% cytotoxic dose (CC50) was calculated as the concentration of compound that decreased the percentage of formazan produced in compound-treated, mock-infected cells to 50% of that produced by compound-free, mock-infected cells. The therapeutic index (TI) was calculated by dividing the CC50 value by the EC50 value.
(§2) All strains of human rhinovirus (HRV) for use in this assay were purchased from American Type Culture Collection (ATCC), except for HRV serotype-14 (produced from the infectious cDNA clone constructed by Dr. Robert Rueckert, Institute for Molecular Virology, University of Wisconsin, Madison, Wis.). HRV stocks were propagated and viral assays were performed in H1-HeLa cells (ATCC). Cells were grown in minimal essential medium with 10% fetal bovine serum, available from Life Technologies (Gaithersburg, Md.).

Another series deals with HRV-14. The series is described as above. The format is cell-based, human rhinovirus. The conditions noted are these: Rhinovirus B, HRV14, H1-HeLa, HRV-14, H1-HeLa cells. The protocol:
as §1, §2

The nature of series [1]: Cytotoxicity in mock-infected cells of the antirhinoviral assay (XTT). The format is cell-based. Particulars: human, H1-HeLa cells. How it is done:
as §1, §2

A further series has as its system H1-HeLa cells. The series is described as above. The format is cell-based. How it is done:
as §1, §2

The target in series [2] is T1, rhinovirus 3C protease, serotype 14 (Human rhinovirus 14, UniProt P03303).
T1 construct: Recombinant rhinovirus 3C proteases; made in house
In words: Inhibition of rhinovirus 3C protease (FRET assay, enzyme start). The format is biochemical. Particulars: HRV-14 3C protease, progress curves, read-out: Kobs/I. The protocol: Stock solutions (50 mM, in DMSO) of various compounds were prepared; dilutions were in the same solvent. Recombinant rhinovirus 3C proteases (see Birch et al., “Purification of recombinant human rhinovirus 14 3C protease expressed in Escherichia coli,” Protein Expr. Pur. (1995), vol. 6(5), 609-618) from serotypes 14, 16, and 2 were prepared by the following standard chromatographic procedures: (1) ion exchange using Q Sepharose Fast Flow from Pharmacia; (2) affinity chromatography using Affi-Gel Blue from Biorad; and (3) sizing using Sephadex G-100 from Pharmacia. Each assay sample contained 2% DMSO, 50 mM tris pH 7.6, 1 mM EDTA, a test compound at the indicated concentration, approximately 1 μM substrate, and 50-100 nM protease. The kobs/I values were obtained from reactions initiated by addition of enzyme rather than substrate. RVP activity was measured in the fluorescence resonance energy transfer assay. The substrate was (N-terminal) DABCYL-(Gly-Arg-Ala-Val-Phe-Gln-Gly-Pro-Val-Gly)-EDANS. In the uncleaved peptide, the EDANS fluorescence was quenched by the proximal DABCYL moiety. When the peptide was cleaved, the quenching was relieved, and activity was measured as an increase in fluorescence signal. The tabulated data in the column designated kobs/[I] were measured from progress curves in enzyme start experiments.

The test system of another series is HRV-10. In words: Antirhinoviral H1-HeLa cell culture assay (XTT cell protection). The format is cell-based. Particulars: Human rhinovirus sp., HRV10; HRV-10, H1-HeLa cells. The protocol:
as §1, §2

The subject of another series is HRV-3. The description is as above. Particulars: Human rhinovirus sp., HRV3; HRV-3, H1-HeLa cells. The format is cell-based. The protocol:
as §1, §2

For the next series, the system named is HRV-9. The description is as above. Particulars: Human rhinovirus sp., HRV9; HRV-9, H1-HeLa cells. The format is cell-based. How it is done: as §1, §2
The test system of the next series is HRV-39. The series is described as above. The conditions noted are these: Human rhinovirus sp., HRV39; HRV-39, H1-HeLa cells. The format is cell-based. How it is done: as §1, §2
The next series has as its system HRV-25. The series is described as above. The conditions noted are these: Human rhinovirus sp., HRV25; HRV-25, H1-HeLa cells. The format is cell-based. The protocol: as §1, §2
Another series relates to HRV-2. The series is described as above. The format is cell-based, human rhinovirus. The conditions noted are these: Rhinovirus A, HRV2; HRV-2, H1-HeLa cells. The protocol:
as §1, §2

The next series has as its system HRV-87. Described as above. The format is cell-based. The conditions noted are these: Human rhinovirus sp., HRV87; HRV-87, H1-HeLa cells. How it is done: as §1, §2
For a further series, the system named is HRV-16. The series is described as above. The format is cell-based. The conditions noted are these: Human rhinovirus sp., HRV16; HRV-16, H1-HeLa cells. How it is done: as §1, §2

Molecules are shown by their SMILES. pEC50: −log10 of the molar value. Some results are limits rather than exact numbers.

A word on the pEC50: it is −log10 of the EC50, conventionally taken in molar units. A lower pEC50 goes with a high EC50. Broadly, the CC50 is the concentration at which the toxic effect on the cells reaches its halfway point. A high value points to lower toxicity to the cells.

T1 sequence (P03303 1538-1719): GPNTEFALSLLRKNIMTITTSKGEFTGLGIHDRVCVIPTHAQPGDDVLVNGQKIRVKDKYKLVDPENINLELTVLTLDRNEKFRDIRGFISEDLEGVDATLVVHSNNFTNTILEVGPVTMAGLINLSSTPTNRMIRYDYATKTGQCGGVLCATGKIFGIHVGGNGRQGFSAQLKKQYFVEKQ

As to `CCOC(=O)/C=C/[C@H](C[C@@H]1CCNC1=O)NC(=O)[C@H](Cc1ccccc1)NC(=O)c1ccc(-c2ccccc2C(F)(F)F)[nH]1` [Compound 28, 5-(2-Oxo-pyrrolidin-3S-yl)-4S-(3-phenyl-2S-{[5-(2-trifluoromethyl-phenyl)-1H-pyrrole-2-carbonyl]-amino}-propionylamino)-pent-2(trans)-enoic acid ethyl ester], the pEC50 in the series with HRV-1A is 6.67; with HRV-14, 7.23; in the series on HRV-10 it was 7.18. This compound also came in with a CC50 at 2 days in [1] (table line HRV-14) of over 1000 nM. The 50% cytotoxic concentration (CC50) in the series on H1-HeLa cells (table line HRV-1A) and with H1-HeLa cells (table line HRV-10) was over 1000 nM throughout. In addition, the kinact/KI in [2] stood at 340000 M⁻¹ s⁻¹.

Turning to `C#CC[C@H](NC(=O)c1ccc(-c2ccccc2C(F)(F)F)[nH]1)C(=O)N[C@H](/C=C/C(=O)OCC)C[C@@H]1CCNC1=O` [Compound 29, 5-(2-Oxo-pyrrolidin-3S-yl)-4S-(2S-{[5-(2-trifluoromethyl-phenyl)-1H-pyrrole-2-carbonyl]-amino}-pent-4-ynoylamino)-pent-2(trans)-enoic acid ethyl ester], the pEC50 in the series on HRV-1A was 7.27; with HRV-14 it was 6.82; with HRV-3 it was 7.19; in the series with HRV-9, 6.92; in the series on HRV-10 it was 7.57; with HRV-39 it was 6.74. The same compound had a pEC50 with HRV-25 of 6.50. This compound returned a CC50 at 2 days in series [1] (table line HRV-14) of over 10000 nM. Besides, the cytotoxic concentration (CC50) with H1-HeLa cells (table line HRV-1A), with H1-HeLa cells (table line HRV-3), in the series on H1-HeLa cells (table line HRV-9), in the series with H1-HeLa cells (table line HRV-10), in the series with H1-HeLa cells (table line HRV-25) and with H1-HeLa cells (table line HRV-39) was over 10000 nM each time. Further, in series [2], the kinact/KI was found to be 103000 M⁻¹ s⁻¹.

On to `C#CC[C@H](CC(=O)c1ccc(-c2ccccc2C(F)(F)F)[nH]1)C(=O)N[C@H](/C=C/C(=O)OCC)C[C@@H]1CCNC1=O` [Compound 36], for which the pEC50 was 6.84 in the series with HRV-1A; 6.84 in the series on HRV-3; 6.84 in the series on HRV-9; 6.48 in the series on HRV-10; 6.63 with HRV-39; 6.48 with HRV-25. This compound also had a CC50 at 2 days in [1] (table line HRV-14) of over 10000 nM. Moreover, the CC50 in the series on H1-HeLa cells (table line HRV-1A), with H1-HeLa cells (table line HRV-3), with H1-HeLa cells (table line HRV-9), in the series on H1-HeLa cells (table line HRV-10), in the series on H1-HeLa cells (table line HRV-25) and in the series with H1-HeLa cells (table line HRV-39) was over 10000 nM throughout.

As for `C#CC[C@H](CC(=O)c1ccc(-c2ccccc2Cl)[nH]1)C(=O)N[C@H](/C=C/C(=O)OCC)C[C@@H]1CCNC1=O` [Compound 38, 4S-(2R-{2-[5-(2-Chloro-phenyl)-1H-pyrrol-2-yl]-2-oxo-ethyl}-pent-4-ynoylamino)-5-(2-oxo-pyrrolidin-3S-yl)-pent-2(trans)-enoic acid ethyl ester], the pEC50 in the series on HRV-1A is 6.27; in the series on HRV-14, 6.87; in the series on HRV-2 it was 6.45; in the series on HRV-3, 6.22; in the series on HRV-9, 6.05; in the series on HRV-10, 6.35. For the same compound, the pEC50 with HRV-87 is 7.01; in the series on HRV-39, 6.23; in the series on HRV-25 it was 5.82; in the series on HRV-16, 5.83. In series [1] (table line HRV-1A), this compound registered a CC50 at 2 days of over 10000 nM. The CC50 in the series with H1-HeLa cells (table line HRV-2), with H1-HeLa cells (table line HRV-3), in the series with H1-HeLa cells (table line HRV-9), in the series on H1-HeLa cells (table line HRV-10), with H1-HeLa cells (table line HRV-14) and in the series on H1-HeLa cells (table line HRV-16) was over 10000 nM in each case. Also, the CC50 in the series with H1-HeLa cells (table line HRV-25), in the series with H1-HeLa cells (table line HRV-39) and in the series with H1-HeLa cells (table line HRV-87) was over 10000 nM throughout. The kinact/KI in series [2] was determined as 33000 M⁻¹ s⁻¹.

With `C#CC[C@H](CC(=O)c1ccc(-c2ccccc2C)[nH]1)C(=O)N[C@H](/C=C/C(=O)OCC)C[C@@H]1CCNC1=O` [Compound 39, 5-(2-Oxo-pyrrolidin-3S-yl)-4S-{2R-[2-oxo-2-(5-o-tolyl-1H-pyrrol-2-yl)-ethyl]-pent-4-ynoylamino}-pent-2(trans)-enoic acid ethyl ester], the pEC50 with HRV-1A was 6.47; with HRV-14 it was 6.67; in the series on HRV-2, 6.67; with HRV-3 it was 6.23; in the series with HRV-9, 6.18; with HRV-10 it was 6.37. Further, the pEC50 in the series on HRV-87 is 7.08; in the series with HRV-39, 6.29; in the series on HRV-25 it was 5.88; with HRV-16, 6.02. For the same compound, the CC50 at 2 days in series [1] (table line HRV-1A) is over 10000 nM. The CC50 in the series with H1-HeLa cells (table line HRV-2), in the series on H1-HeLa cells (table line HRV-3), in the series on H1-HeLa cells (table line HRV-9), in the series with H1-HeLa cells (table line HRV-10), in the series on H1-HeLa cells (table line HRV-14) and in the series with H1-HeLa cells (table line HRV-16) was over 10000 nM throughout. In addition, the CC50 in the series on H1-HeLa cells (table line HRV-25), in the series with H1-HeLa cells (table line HRV-39) and with H1-HeLa cells (table line HRV-87) was over 10000 nM each time. In addition, in series [2], the kinact/KI came to 20100 M⁻¹ s⁻¹.

For `CCOC(=O)/C=C/[C@H](CCC(N)=O)NC(=O)[C@@H](CC(=O)c1ccc(-c2ccccc2C(F)(F)F)[nH]1)Cc1ccccc1` [Compound 40, 4S-{2R-Benzyl-4-oxo-[5-(2-trifluoromethyl-phenyl)-1H-pyrrol-2-yl]-butyrylamino}-6-carbamoyl-hex-2(trans)-enoic acid ethyl ester], the pEC50 in the series with HRV-14 was 5.78. This compound also came in with a CC50 at 2 days in series [1] (table line HRV-14) of over 10000 nM. In addition, the kinact/KI in [2] was determined as 3180 M⁻¹ s⁻¹.

As for `CCOC(=O)/C=C/[C@H](CCC(N)=O)NC(=O)[C@H](Cc1ccccc1)N(C)C(=O)c1ccc(-c2ccccc2C(F)(F)F)[nH]1` [Compound 41, 6-Carbamoyl-4S-(2S {methyl-[5-(2-trifluoromethyl-phenyl)-1H-pyrrole-2-carbonyl]-amino}-3-3-phenyl-propionylamino)-hex-2(trans)-enoic acid ethyl ester], the pEC50 in the series with HRV-14 is 6.30. The compound further gave a CC50 at 2 days in series [1] (table line HRV-14) of over 10000 nM. In [2], the kinact/KI was found to be 10700 M⁻¹ s⁻¹.

Source of the values: patent publication US6872745B2, “Antipicornaviral compounds and compositions, their pharmaceutical uses, and materials for their synthesis” (Agouron Pharmaceuticals, Inc., priority 2000, dated 2005).
